# Reference: ChEMBL document CHEMBL4828724 (Eur J Med Chem, 2021)
# Assays:
# [1] = Metabolic stability in monkey liver microsomes assessed as parent compound remaining at 1 uM in the presence of NADPH measured after 60 mins by LC-MS/MS analysis; type: ADME, Macaca mulatta, Microsome; conditions: rhesus monkey; for remaining at 1 h, 1 µM: liver microsomes, read-out: Stability
# [2] = Metabolic stability in mouse liver microsomes assessed as parent compound remaining at 1 uM in the presence of NADPH measured after 60 mins by LC-MS/MS analysis; type: ADME, Microsome; conditions: for remaining at 1 h, 1 µM: liver microsomes, read-out: Stability
# [3] = Metabolic stability in human liver microsomes assessed as parent compound remaining at 1 uM in the presence of NADPH measured after 60 mins by LC-MS/MS analysis; type: ADME, Microsome; conditions: read-out: Stability
# [4] = Metabolic stability in monkey liver microsomes assessed as intrinsic clearance at 1 uM in the presence of NADPH measured for 60 mins by LC-MS/MS analysis; type: ADME, Macaca mulatta, Microsome; conditions: rhesus monkey, read-out: CLH
# [5] = Metabolic stability in mouse liver microsomes assessed as intrinsic clearance at 1 uM in the presence of NADPH measured for 60 mins by LC-MS/MS analysis; type: ADME, Microsome; conditions: read-out: CLH
# [6] = Metabolic stability in human liver microsomes assessed as intrinsic clearance at 1 uM in the presence of NADPH measured for 60 mins by LC-MS/MS analysis; type: ADME, Microsome; conditions: read-out: CLH
# [7] = molecular target: T1, Synaptic vesicular amine transporter (Rattus norvegicus, UniProt Q01827); assay: Inhibition of [3H]DTBZ binding to VMAT2 in rat brain incubated for 30 mins by liquid scintillation spectrometry analysis; type: tissue-based
# T1 sequence (Q01827 whole entry): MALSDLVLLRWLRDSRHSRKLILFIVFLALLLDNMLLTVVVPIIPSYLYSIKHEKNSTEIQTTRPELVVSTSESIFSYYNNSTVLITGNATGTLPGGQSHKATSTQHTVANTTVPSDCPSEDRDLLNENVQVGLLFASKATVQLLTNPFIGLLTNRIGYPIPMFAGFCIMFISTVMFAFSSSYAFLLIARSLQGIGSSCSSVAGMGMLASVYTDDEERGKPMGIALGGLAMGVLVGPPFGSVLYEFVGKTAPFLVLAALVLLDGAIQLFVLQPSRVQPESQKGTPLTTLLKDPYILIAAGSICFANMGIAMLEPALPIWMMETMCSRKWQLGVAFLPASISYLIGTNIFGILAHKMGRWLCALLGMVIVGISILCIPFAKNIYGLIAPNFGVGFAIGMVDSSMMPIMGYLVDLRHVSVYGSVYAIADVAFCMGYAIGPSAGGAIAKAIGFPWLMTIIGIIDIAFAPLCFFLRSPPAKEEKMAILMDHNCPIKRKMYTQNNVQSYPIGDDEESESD
# [8] = molecular target: Synaptic vesicular amine transporter (Rattus norvegicus) (UniProt Q01827); assay: Inhibition of [3H]DA uptake at VMAT2 in rat striatal synaptosome at 1 uM incubated for 10 mins followed by [3H]DA addition and measured after 20 mins by TopCount scintillation counting method relative to control; type: subcellular; conditions: Striatum, time 30.0 min
# Sequence of Synaptic vesicular amine transporter (Rattus norvegicus) (Q01827 whole entry): as above
# [9] = molecular target: Synaptic vesicular amine transporter (Rattus norvegicus) (UniProt Q01827); assay: Inhibition of [3H]DA uptake at VMAT2 in rat striatal synaptosome at 0.1 uM incubated for 10 mins followed by [3H]DA addition and measured after 20 mins by TopCount scintillation counting method relative to control; type: subcellular; conditions: Striatum, time 30.0 min
# [10] = molecular target: T1, Synaptic vesicular amine transporter; assay: Inhibition of [3H]DA uptake at VMAT2 in rat striatal synaptosome incubated for 10 mins followed by [3H]DA addition and measured after 20 mins by TopCount scintillation counting method; type: subcellular, Striatum
# [11] = Metabolic stability in human liver microsomes assessed as half life at 1 uM in the presence of NADPH measured for 60 mins by LC-MS/MS analysis; type: ADME, Microsome
# [12] = Metabolic stability in mouse liver microsomes assessed as half life at 1 uM in the presence of NADPH measured for 60 mins by LC-MS/MS analysis; type: ADME, Microsome; conditions: for half-life at 1 µM: liver microsomes
# [13] = Metabolic stability in monkey liver microsomes assessed as half life at 1 uM in the presence of NADPH measured for 60 mins by LC-MS/MS analysis; type: ADME, Macaca mulatta, Microsome; conditions: rhesus monkey
# [14] = Tmax in Sprague-Dawley rat at 10 umol/kg, ig administered as single dose measured for 12 hrs by LC-MS/MS analysis; type: ADME; conditions: in vivo, po, dose 10 µmol/kg
# [15] = Cmax in Sprague-Dawley rat at 10 umol/kg, ig administered as single dose measured for 12 hrs by LC-MS/MS analysis; type: ADME; set-up: route […], time 12 hrs, dose 10 µmol/kg; conditions: in vivo, po
# [16] = AUC (0 to infinity) in Sprague-Dawley rat at 10 umol/kg, ig administered as single dose by LC-MS/MS analysis; type: ADME; set-up: time infinity, route […], dose 10 µmol/kg; conditions: in vivo, po
# [17] = Apparent volume of distribution during terminal phase in Sprague-Dawley rat at 10 umol/kg, ig administered as single dose measured after 12 hrs by LC-MS/MS analysis; type: ADME; conditions: in vivo, po, dose 10 µmol/kg, read-out: Vz/F
# [18] = Clearance in Sprague-Dawley rat at 10 umol/kg, ig administered as single dose measured for 12 hrs by LC-MS/MS analysis; type: ADME; conditions: in vivo, po, dose 10 µmol/kg
# [19] = Half life in Sprague-Dawley rat at 10 umol/kg, ig administered as single dose measured for 12 hrs by LC-MS/MS analysis; type: ADME; conditions: in vivo, po, dose 10 µmol/kg
# Rattus norvegicus [20] = assay: Reduction in spontaneous locomotor activity in Sprague-Dawley rat at 3 umol/kg, po measured for 3 hrs; type: functional
# Rattus norvegicus [21] = assay: Reduction in spontaneous locomotor activity in Sprague-Dawley rat at 15 umol/kg, po measured for 3 hrs; type: functional
# [22] = Drug uptake in Sprague-Dawley rat brain at 5 umol/kg, ig measured after 2 hrs by LC-MS/MS analysis; type: ADME, tissue-based; conditions: in vivo, po, dose 5 µmol/kg
# Cytochrome P450 3A4 = Cytochrome P450 3A4 (Homo sapiens, UniProt P08684); assay: Inhibition of CYP3A4 (unknown origin); type: ADME
# Sequence of Cytochrome P450 3A4 (P08684 whole entry): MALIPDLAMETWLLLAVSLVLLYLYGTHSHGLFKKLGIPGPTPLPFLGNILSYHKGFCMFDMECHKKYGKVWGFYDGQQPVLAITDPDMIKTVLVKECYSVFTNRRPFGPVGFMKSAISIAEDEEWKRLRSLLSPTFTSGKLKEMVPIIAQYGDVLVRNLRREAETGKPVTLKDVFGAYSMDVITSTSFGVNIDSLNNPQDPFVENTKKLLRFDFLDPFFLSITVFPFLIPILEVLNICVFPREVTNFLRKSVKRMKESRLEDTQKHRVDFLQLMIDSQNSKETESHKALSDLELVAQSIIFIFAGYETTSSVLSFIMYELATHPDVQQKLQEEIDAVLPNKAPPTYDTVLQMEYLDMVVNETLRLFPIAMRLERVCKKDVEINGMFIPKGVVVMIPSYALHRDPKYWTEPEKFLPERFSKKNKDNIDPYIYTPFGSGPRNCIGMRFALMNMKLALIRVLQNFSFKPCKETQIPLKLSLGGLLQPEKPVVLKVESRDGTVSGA
# Cytochrome P450 2C9 = Cytochrome P450 2C9 (Homo sapiens, UniProt P11712); assay: Inhibition of CYP2C9 (unknown origin); type: ADME
# Sequence of Cytochrome P450 2C9 (P11712 whole entry): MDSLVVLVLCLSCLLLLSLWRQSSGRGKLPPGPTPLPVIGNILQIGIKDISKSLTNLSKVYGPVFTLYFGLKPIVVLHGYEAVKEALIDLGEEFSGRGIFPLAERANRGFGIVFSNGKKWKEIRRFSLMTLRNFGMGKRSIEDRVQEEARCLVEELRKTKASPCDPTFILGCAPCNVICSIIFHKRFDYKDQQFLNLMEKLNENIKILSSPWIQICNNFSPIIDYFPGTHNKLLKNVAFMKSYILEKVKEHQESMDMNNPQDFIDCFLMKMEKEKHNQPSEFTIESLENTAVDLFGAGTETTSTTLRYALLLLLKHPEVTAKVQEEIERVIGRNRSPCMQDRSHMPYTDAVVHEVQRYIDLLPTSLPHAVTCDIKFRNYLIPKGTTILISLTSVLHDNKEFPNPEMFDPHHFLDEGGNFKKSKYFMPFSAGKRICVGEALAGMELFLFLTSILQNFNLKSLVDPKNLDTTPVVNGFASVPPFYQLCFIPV
# Cytochrome P450 2D6 = Cytochrome P450 2D6 (Homo sapiens, UniProt P10635); assay: Inhibition of CYP2D6 (unknown origin); type: ADME
# Sequence of Cytochrome P450 2D6 (P10635 whole entry): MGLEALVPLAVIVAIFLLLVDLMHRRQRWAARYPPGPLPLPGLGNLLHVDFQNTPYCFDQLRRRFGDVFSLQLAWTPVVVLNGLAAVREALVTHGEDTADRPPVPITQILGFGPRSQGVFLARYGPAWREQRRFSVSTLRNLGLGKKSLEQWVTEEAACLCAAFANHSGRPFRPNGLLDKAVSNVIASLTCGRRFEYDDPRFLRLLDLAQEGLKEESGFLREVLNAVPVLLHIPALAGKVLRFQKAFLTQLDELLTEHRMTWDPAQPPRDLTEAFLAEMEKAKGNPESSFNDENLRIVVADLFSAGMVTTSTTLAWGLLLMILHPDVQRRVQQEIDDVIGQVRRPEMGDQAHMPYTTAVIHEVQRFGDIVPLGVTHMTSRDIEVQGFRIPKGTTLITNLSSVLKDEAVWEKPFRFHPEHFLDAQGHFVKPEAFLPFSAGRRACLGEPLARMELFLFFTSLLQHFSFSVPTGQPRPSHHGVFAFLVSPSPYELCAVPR
# Cytochrome P450 2C19 = Cytochrome P450 2C19 (Homo sapiens, UniProt P33261); assay: Inhibition of CYP2C19 (unknown origin); type: ADME
# Sequence of Cytochrome P450 2C19 (P33261 whole entry): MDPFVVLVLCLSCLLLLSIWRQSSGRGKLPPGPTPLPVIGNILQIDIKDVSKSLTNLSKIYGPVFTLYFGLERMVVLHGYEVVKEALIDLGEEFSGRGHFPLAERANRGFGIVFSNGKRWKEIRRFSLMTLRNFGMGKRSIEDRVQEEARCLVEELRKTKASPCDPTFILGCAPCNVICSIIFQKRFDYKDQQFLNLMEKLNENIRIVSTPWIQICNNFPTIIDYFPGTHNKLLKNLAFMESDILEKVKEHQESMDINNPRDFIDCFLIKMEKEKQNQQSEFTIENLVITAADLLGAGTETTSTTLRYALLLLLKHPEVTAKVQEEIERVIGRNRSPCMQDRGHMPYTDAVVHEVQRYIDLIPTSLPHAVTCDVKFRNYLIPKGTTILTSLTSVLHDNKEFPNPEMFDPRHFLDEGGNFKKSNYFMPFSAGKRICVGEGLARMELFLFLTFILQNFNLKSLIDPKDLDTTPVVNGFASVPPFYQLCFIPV
# Cytochrome P450 2B6 = molecular target: T2, Cytochrome P450 2B6 (Homo sapiens, UniProt P20813); assay: Inhibition of CYP2B6 (unknown origin); type: ADME
# T2 sequence (P20813 whole entry): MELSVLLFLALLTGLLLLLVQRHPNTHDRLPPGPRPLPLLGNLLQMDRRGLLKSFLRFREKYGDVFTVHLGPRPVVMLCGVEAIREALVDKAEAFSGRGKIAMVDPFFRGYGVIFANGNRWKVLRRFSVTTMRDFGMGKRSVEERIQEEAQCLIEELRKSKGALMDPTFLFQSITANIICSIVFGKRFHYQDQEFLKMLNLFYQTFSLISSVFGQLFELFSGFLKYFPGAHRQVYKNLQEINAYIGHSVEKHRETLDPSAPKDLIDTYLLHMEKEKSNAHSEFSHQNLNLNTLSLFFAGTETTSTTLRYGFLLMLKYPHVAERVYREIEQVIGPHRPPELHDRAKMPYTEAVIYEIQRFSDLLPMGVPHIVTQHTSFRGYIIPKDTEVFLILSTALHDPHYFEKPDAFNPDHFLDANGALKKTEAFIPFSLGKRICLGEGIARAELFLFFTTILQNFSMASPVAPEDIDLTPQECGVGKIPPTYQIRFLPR
# [23] = molecular target: Voltage-gated inwardly rectifying potassium channel KCNH2 (Homo sapiens, UniProt Q12809); assay: Inhibition of human ERG
# Sequence of Voltage-gated inwardly rectifying potassium channel KCNH2 (Q12809 whole entry): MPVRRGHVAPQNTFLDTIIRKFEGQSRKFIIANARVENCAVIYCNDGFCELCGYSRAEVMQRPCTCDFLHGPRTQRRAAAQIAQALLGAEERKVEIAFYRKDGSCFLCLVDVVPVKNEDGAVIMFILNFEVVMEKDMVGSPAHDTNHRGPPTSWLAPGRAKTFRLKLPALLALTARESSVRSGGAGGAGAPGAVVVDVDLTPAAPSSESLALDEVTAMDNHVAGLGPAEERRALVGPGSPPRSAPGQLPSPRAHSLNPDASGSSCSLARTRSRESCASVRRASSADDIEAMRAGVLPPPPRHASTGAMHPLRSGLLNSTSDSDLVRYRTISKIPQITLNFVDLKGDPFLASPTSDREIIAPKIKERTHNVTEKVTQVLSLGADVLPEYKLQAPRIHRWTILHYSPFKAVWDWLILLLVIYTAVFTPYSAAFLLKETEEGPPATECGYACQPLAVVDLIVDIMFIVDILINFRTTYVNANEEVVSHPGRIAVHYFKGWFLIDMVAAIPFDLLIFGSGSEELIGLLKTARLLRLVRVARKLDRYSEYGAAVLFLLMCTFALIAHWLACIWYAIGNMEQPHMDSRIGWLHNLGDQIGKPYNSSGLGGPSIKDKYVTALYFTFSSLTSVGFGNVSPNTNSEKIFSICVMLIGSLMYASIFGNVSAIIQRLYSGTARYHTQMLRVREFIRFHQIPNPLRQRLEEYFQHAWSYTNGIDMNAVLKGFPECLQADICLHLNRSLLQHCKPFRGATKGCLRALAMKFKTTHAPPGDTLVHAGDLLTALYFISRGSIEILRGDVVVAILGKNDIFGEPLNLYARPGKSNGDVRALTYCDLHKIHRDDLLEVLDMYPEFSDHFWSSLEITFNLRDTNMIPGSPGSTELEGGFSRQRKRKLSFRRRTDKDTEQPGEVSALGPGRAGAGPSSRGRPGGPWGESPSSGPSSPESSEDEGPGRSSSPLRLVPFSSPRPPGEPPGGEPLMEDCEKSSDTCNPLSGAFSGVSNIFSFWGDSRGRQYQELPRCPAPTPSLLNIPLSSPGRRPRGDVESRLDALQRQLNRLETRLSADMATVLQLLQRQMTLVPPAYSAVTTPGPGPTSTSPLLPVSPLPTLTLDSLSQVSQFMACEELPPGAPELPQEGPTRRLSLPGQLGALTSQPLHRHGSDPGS
structure (smiles),measurement,setting,value
COc1cc2c(cc1OCC1CC1)CCN1CC(CC(C)C)C(O)CC21 (stereo not given),"remaining at 1 h, 1 µM",[1],17.6%
same,Stability,"[2]; microsomes, 1 h, 1 µM",22.6%
same,"remaining at 1 h, 1 µM",[3],74.7%
same,CLint scaled at 1 µM,[4],72.4 mL/min/kg
same,CLint scaled at 1 µM,[5],522 mL/min/kg
same,CLint scaled at 1 µM,[6],19.4 mL/min/kg
same,IC50,[7],5.99 nM
same,inhibition,[8],99.2%
same,inhibition,[9],96%
same,IC50,[10],17.8 nM
same,half-life at 1 µM,[11],128 min
same,t1/2,"[12]; microsomes, 1 h, 1 µM",10.5 min
same,half-life at 1 µM,[13],25.9 min
COc1cc2c(cc1OC)C1CC(N)C(CC(C)C)CN1CC2 (stereo not given),IC50,[7],102 nM
same,inhibition,[8],87.9%
same,inhibition,[9],72.8%
CCCOc1cc2c(cc1OC(C)C)C1CC(O)C(CC(C)C)CN1CC2 (stereo not given),IC50,[7],> 500 nM
CCCOc1cc2c(cc1OC)C1CC(O)C(CC(C)C)CN1CC2 (stereo not given),inhibition,[8],99.3%
same,inhibition,[9],91.2%
same,IC50,[10],35.2 nM
COc1cc2c(cc1OC)C1CC(C)(O)C(CC(C)C)CN1CC2 (stereo not given),IC50,[7],> 500 nM
same,inhibition,[8],96.1%
same,inhibition,[9],53.1%
COc1cc2c(cc1OC)C1CC(O)(C#N)C(CC(C)C)CN1CC2 (stereo not given),IC50,[7],87 nM
same,inhibition,[8],93.7%
same,inhibition,[9],85%
same,IC50,[10],27.9 nM
COc1cc2c(cc1OC)C1CC(O)(CO)C(CC(C)C)CN1CC2 (stereo not given),CLint scaled at 1 µM,[5],143 mL/min/kg
same,CLint scaled at 1 µM,[6],109 mL/min/kg
same,IC50,[7],8.02 nM
same,inhibition,[8],99.7%
same,inhibition,[9],99.1%
same,IC50,[10],5.14 nM
CCOc1cc2c(cc1OC)CCN1CC(CC(C)C)C(O)CC21 (stereo not given),IC50,[7],> 500 nM
COc1cc2c(cc1OC)C1CC(=O)C(CC(C)C)CN1CC2 (stereo not given) [TETRABENAZINE],"remaining at 1 h, 1 µM",[1],10.5%
same,"remaining at 1 h, 1 µM",[2],13.4%
same,"remaining at 1 h, 1 µM",[3],30.8%
same,CLint scaled at 1 µM,[4],149 mL/min/kg
same,CLint scaled at 1 µM,[5],254 mL/min/kg
same,CLint scaled at 1 µM,[6],76 mL/min/kg
same,half-life at 1 µM,[11],32.8 min
same,half-life at 1 µM,[12],21.6 min
same,half-life at 1 µM,[13],12.6 min
COc1cc2c(cc1OC)[C@H]1C[C@@H](O)[C@H](CC(C)C)CN1CC2 [DIHYDROTETRABENAZINE],"remaining at 1 h, 1 µM",[1],29.9%
same,"remaining at 1 h, 1 µM",[2],4.8%
same,"remaining at 1 h, 1 µM",[3],75.6%
same,CLint scaled at 1 µM,[4],53.7 mL/min/kg
same,CLint scaled at 1 µM,[5],1150 mL/min/kg
same,CLint scaled at 1 µM,[6],20.9 mL/min/kg
same,half-life at 1 µM,[11],120 min
same,half-life at 1 µM,[12],4.8 min
same,half-life at 1 µM,[13],34.8 min
same,Tmax,[14],22.8 min
same,Cmax,[15],1210 nM
same,AUC(0-inf),[16],2.3 µM·h
same,Vd/F,[17],10.5 L/kg
same,CL/F,[18],74.5 mL/min/kg
same,half-life,[19],96.6 min
same,inhibition in vivo at 3 µmol/kg,Rattus norvegicus [20],48.4%
same,inhibition in vivo at 15 µmol/kg,Rattus norvegicus [21],91.4%
same,Drug uptake,[22],213.5 nmol/kg
same,IC50,Cytochrome P450 3A4,> 100000 nM
same,IC50,Cytochrome P450 2C9,> 100000 nM
same,IC50,Cytochrome P450 2D6,> 100000 nM
same,IC50,Cytochrome P450 2C19,> 100000 nM
same,IC50,Cytochrome P450 2B6,> 100000 nM
CCOc1cc2c(cc1OCCCOC)CCN1CC(CC(C)C)C(O)CC21 (stereo not given),IC50,[7],200 nM
CCOc1cc2c(cc1OCCCOC)C1CC(O)C(CC(C)C)CN1CC2 (stereo not given),IC50,[7],73.2 nM
CCOc1cc2c(cc1OCCCF)C1CC(O)C(CC(C)C)CN1CC2 (stereo not given),IC50,[7],> 500 nM
CCCOc1cc2c(cc1OCC)C1CC(O)C(CC(C)C)CN1CC2 (stereo not given),"remaining at 1 h, 1 µM",[1],6.6%
same,"remaining at 1 h, 1 µM",[2],1.3%
same,"remaining at 1 h, 1 µM",[3],47.3%
same,CLint scaled at 1 µM,[4],120 mL/min/kg
same,CLint scaled at 1 µM,[5],535 mL/min/kg
same,CLint scaled at 1 µM,[6],22.5 mL/min/kg
same,IC50,[7],12.5 nM
same,half-life at 1 µM,[11],55.4 min
same,half-life at 1 µM,[12],10.3 min
same,half-life at 1 µM,[13],15.6 min
CCOc1cc2c(cc1OCCCF)CCN1CC(CC(C)C)C(O)CC21 (stereo not given),IC50,[7],56.6 nM
CCOc1cc2c(cc1OCC1CC1)CCN1CC(CC(C)C)C(O)CC21 (stereo not given),IC50,[7],21.4 nM
CCOc1cc2c(cc1OCC1CC1)C1CC(O)C(CC(C)C)CN1CC2 (stereo not given),IC50,[7],> 500 nM
COCCCOc1cc2c(cc1OC)C1CC(O)C(CC(C)C)CN1CC2 (stereo not given),inhibition,[8],92.1%
same,inhibition,[9],84.9%
same,IC50,[10],64.9 nM
CCCOc1cc2c(cc1OC(C)C)CCN1CC(CC(C)C)C(O)CC21 (stereo not given),IC50,[7],> 500 nM
COc1cc2c(cc1OC)[C@H]1C[C@@H](OC(=O)[C@@H](N)C(C)C)[C@H](CC(C)C)CN1CC2 [VALBENAZINE],IC50,[23],1700 nM
CCOc1cc2c(cc1OC)C1CC(O)C(CC(C)C)CN1CC2 (stereo not given),Stability,"[1]; microsomes, 1 h, 1 µM",23.7%
same,"remaining at 1 h, 1 µM",[2],9.4%
same,"remaining at 1 h, 1 µM",[3],66.8%
same,CLint scaled at 1 µM,[4],131 mL/min/kg
same,CLint scaled at 1 µM,[5],283 mL/min/kg
same,CLint scaled at 1 µM,[6],14.4 mL/min/kg
same,inhibition,[8],99.9%
same,inhibition,[9],99.9%
same,IC50,[10],5.72 nM
CC(C)CC1CN2CCc3cc(OCC4CC4)c(OCC4CC4)cc3C2CC1O (stereo not given),IC50,[7],210 nM
CCC1(O)CC2c3cc(OC)c(OC)cc3CCN2CC1CC(C)C (stereo not given),IC50,[7],> 500 nM
same,inhibition,[8],81.7%
same,inhibition,[9],33.2%
